From the RepoRT retention time repository (doi:10.1016/j.chroma.2015.03.063)

Test: RP, Thermo Scientific Accucore C18, 150 × 2.1 mm, 2.6 µm, 24 °C, 0.28 mL/min, estimated dead time 0.83 min; A: 90% water + 10% acetonitrile + 10 mM ammonium acetate; B: 20% water + 80% methanol + 10 mM ammonium acetate; gradient (min/%B) 0/0 2.5/0 7.5/30 12.5/30 15/40 20/100 27.5/100
Details: stereoisomer not certain

Row | SMILES | LC retention time [min]
1 | O=C1CC2OCC=C3CN4CCC56c7ccccc7N1C5C2C3CC46 (stereo not drawn) | 6.68
2 | Nc1nc(N)c2nc(-c3ccccc3)c(N)nc2n1 | 6.51
3 | c1ccc(CN2CCNCC2)cc1 | 4.45
4 | CC(C)=CCN1CCC2(C)c3cc(O)ccc3CC1C2C (stereo not drawn) | 9.19
5 | CNC(C)CCC=C(C)C (stereo not drawn) | 7.13
6 | CNC(C)Cc1ccccc1 (stereo not drawn) | 4.66
7 | C=CCc1ccccc1OCC(O)CNC(C)C (stereo not drawn) | 10.1
8 | CCC1(O)CCC2C3CCC4=CC(=O)CCC4=C3C=CC21CC (stereo not drawn) | 18.8
9 | COc1ccc2c3c1OC1C(O)C=CC4C(C2)N(C)CCC341 (stereo not drawn) | 4.48
10 | CC1C(c2ccccc2)OCCN1C (stereo not drawn) | 8.08
11 | CC(C)c1c(CN(C)C(C)Cc2ccccc2)n(C)n(-c2ccccc2)c1=O (stereo not drawn) | 21.3
12 | COc1ccc2c3c1OC1C(=O)CCC4(O)C(C2)N(C)CCC314 (stereo not drawn) | 5.11
13 | OCc1cc(C(O)CNCCCCCCOCCCCc2ccccc2)ccc1O (stereo not drawn) | 17
14 | CC(N)Cc1ccccc1 (stereo not drawn) | 3.77
15 | COc1ccccc1OCCNCC(O)COc1cccc2[nH]c3ccccc3c12 (stereo not drawn) | 15.4
16 | CCCC(Cc1ccccc1)N1CCCC1 (stereo not drawn) | 9.51
17 | C#CCN(C)C(C)Cc1ccccc1 (stereo not drawn) | 15.1
18 | CC(N)C(=O)c1ccccc1 (stereo not drawn) | 8.59
19 | CNC(C)C(=O)c1ccc2c(c1)OCO2 (stereo not drawn) | 3.44
20 | COC(=O)C1C(OC(=O)c2ccccc2)CC2CCC1N2C (stereo not drawn) | 8.59

Row | SMILES | LC retention time [min]
21 | CNC(C)C(O)c1ccccc1 (stereo not drawn) | 2.75
22 | CN1C2CCC1C(C(=O)O)C(OC(=O)c1ccccc1)C2 (stereo not drawn) | 4.81
23 | C=CCOc1ccccc1OCC(O)CNC(C)C (stereo not drawn) | 8.57
24 | N=C1NC(=O)C(c2ccccc2)O1 (stereo not drawn) | 3.65
25 | CCOC(=O)C1(c2ccccc2)CCN(C)CC1 | 8.8
26 | NC(CC(O)COc1cccc2ccccc12)=NO (stereo not drawn) | 9.66
27 | CC(N)Cc1ccc2c(c1)OCO2 (stereo not drawn) | 4.23
28 | CC(Cc1ccccc1)NCCn1cnc2c1c(=O)n(C)c(=O)n2C (stereo not drawn) | 8.9
29 | CCNC(C)C(=O)c1ccc(C)cc1 (stereo not drawn) | 6.99
30 | CC(C)(C#N)c1cc(Cn2cncn2)cc(C(C)(C)C#N)c1 | 12.2
31 | CC(C)(C)NCC(O)COc1nsnc1N1CCOCC1 (stereo not drawn) | 7.05
32 | COCCc1ccc(OCC(O)CNC(C)C)cc1 (stereo not drawn) | 7.33
33 | CC(Cc1ccc(O)cc1)NCC(O)c1cc(O)cc(O)c1 (stereo not drawn) | 3.13
34 | CC(C)(N)Cc1ccccc1 | 4.37
35 | CC(Cc1ccccc1)N(C)Cc1ccco1 (stereo not drawn) | 14.8
36 | C1CCc2nnnn2CC1 | 2.93
37 | CNC(C)Cc1ccc2c(c1)OCO2 (stereo not drawn) | 5.12
38 | COc1ccc(CC(C)NCC(O)c2ccc(O)c(NC=O)c2)cc1.COc1ccc(CC(C)NCC(O)c2ccc(O)c(NC=O)c2)cc1.O=C(O)C=CC(=O)O (stereo not drawn) | 7.62
39 | CC(Cc1ccccc1)NCCC#N (stereo not drawn) | 8.95

More lines, now with the values ahead:

Row | LC retention time [min] | SMILES
40 | 8.1 | COC(=O)CCc1ccc(OCC(O)CNC(C)C)cc1 (stereo not drawn)
41 | 8.07 | CCN(CC)C(=O)c1ccc(O)c(OC)c1
42 | 21.2 | CCC(C(=O)OCCN1CCOC(c2ccccc2)C1C)c1ccccc1 (stereo not drawn)
43 | 12.7 | CC1(C)OC2CC3C4CCC5=CC(=O)C=CC5(C)C4C(O)CC3(C)C2(C(=O)CO)O1 (stereo not drawn)
44 | 10.2 | CC(C)NCC(O)COc1ccc(CCOCC2CC2)cc1 (stereo not drawn)
45 | 5.49 | CCN(CC)C(=O)c1cccnc1
46 | 15.6 | CNCCC=C1c2ccccc2CCc2ccccc21
47 | 17.2 | CN(C)CCC=C1c2ccccc2CCc2ccccc21
48 | 7.07 | CCCC(=O)Nc1ccc(OCC(O)CNC(C)C)c(C(C)=O)c1 (stereo not drawn)
49 | 7.63 | CC(C)(C)NCC(O)COc1cccc2c1CCCC2=O (stereo not drawn)
50 | 9.34 | CC12C=CC(=O)C=C1CCC1C2C(O)CC2(C)C1CCC2(O)C(=O)CO (stereo not drawn)
51 | 9.1 | Cc1cc(C)cc(NC(=O)Cc2ccc(OC(C)(C)C(=O)O)cc2)c1
52 | 17.2 | COC(=O)C1=C(C)NC(C)=C(C(=O)OC)C1c1ccccc1[N+](=O)[O-]
53 | 5.43 | Cc1cc(=O)n(-c2ccccc2)n1C
54 | 17.2 | CS(=O)(=O)Nc1ccc([N+](=O)[O-])cc1Oc1ccccc1
55 | 9.4 | CC12C=CC(=O)C=C1CCC1C2C(=O)CC2(C)C1CCC2(O)C(=O)CO (stereo not drawn)
56 | 17.9 | Cc1ccc(C)c(OCCCC(C)(C)C(=O)O)c1
57 | 4.97 | CC(C)(C)NCC(O)COc1cccc2c1CC(O)C(O)C2 (stereo not drawn)
58 | 4.22 | CC(C)(C)NCC(O)COc1cccc2c1CCC(=O)N2 (stereo not drawn)
